According to article PMC9927463, “Identification and Characterization of Corynaridin, a Novel Linaridin from Corynebacterium lactis” (Microbiology Spectrum, 2022):

What was measured:
[1] = test system: Micrococcus luteus; details: cited from earlier work
Text: (§1) While extensive studies have been carried out on the structure and chemistry behind their modifications, comparably little is known about the biological functions of linaridins. […] So far, for none of the hitherto described linaridins receptors or mode of action have been prop ...

[2] = test system: C. glutamicum ATCC 13032; assay: time-kill kinetics; assay type: cell-based, Corynebacterium glutamicum
Protocol: Fresh overnight cultures of C. glutamicum ATCC 13032 were used to inoculate 5 mL 2× TY in glass tubes with a starting OD600 of 0.5 (i.e., ~10^7 CFU/mL). Samples of interest were added at the indicated concentrations prior to inoculation of the medium. Cultures were then incubated on a rotary shaker at 130 rpm for 24 h at 30°C. Samples were collected at the indicated time points, diluted (10^−1 to 10^−8), and plated on 2× TY agar. CFU per milliliter were determined after 24 to 48 h of incubation of the plates at 30°C by counting the colonies for the respective dilution.

[3] = test system: C. glutamicum ATCC 13032/pPB-pHin2^Cg; assay: pHluorin assay for membrane damage; assay type: cell-based, Corynebacterium glutamicum; details: LMB pH 6.2, 30 min room temperature
Protocol: For detection of membrane damage, a pHluorin assay was conducted as described earlier ([34]). In particular, a 5-mL BHI overnight culture containing kanamycin (50 μg/mL) of the sensor strain C. glutamicum ATCC 13032/pPB-pHin2^Cg was harvested by centrifugation and resuspended to an OD600 of 3 in Listeria minimal buffer [LMB: 100 mM MOPS, 4.82 mM KH2PO4, 11.52 mM Na2HPO4, 1.7 mM MgSO4, 0.6 g/L (NH4)2SO4, 55 mM glucose (pH 6.2)]. Serial 2-fold dilutions of samples were prepared in black 96-well microtiter plates (Sarsted, Nümbrecht, Germany) with a final volume of 100 μL in each well. Subsequently, 100 μL of the sensor strain suspension was added and the plate was incubated at room temperature in the dark for 30 min. Then, pHluorin2 fluorescence was measured at 520 nm with excitation at the distinct maxima at 400 and 480 nm using an infinite M200 plate reader (Tecan, Männedorf, Switzerland).

[4] = test system: Corynebacterium glutamicum ATCC 13032; assay: spot-on-lawn assay; assay type: cell-based; set-up: key to Activity, RPC fraction: +: zone of inhibition; (+): diffuse zone of inhibition; −: no zone of inhibition
Protocol: (§2) Antimicrobial activity was determined using a spot-on-lawn assay. Overnight cultures of the respective strains were inoculated with an OD600 of 0.01 into hand-warmed agar medium (16 g/L agar) and poured into sterile petri dishes. After solidification, surfaces of agar plates were air dried at room temperature under a sterile hood. Supernatants and purification fractions were serially diluted and spotted onto agar plates. Plates were incubated under the preferred conditions of the embedded bacteria until growth was visible. Volumetric bacteriocin activity (bacteriocin units [BU] per milliliter) was determined by dividing the last dilution factor resulting in a visible zone of inhibition by the volume spotted.

[5] = test system: Cutibacterium acnes DSM 16379; assay: spot-on-lawn assay; assay type: cell-based; set-up: key to Activity, RPC fraction: +: zone of inhibition; (+): diffuse zone of inhibition; −: no zone of inhibition
Protocol: as §2

[6] = test system: Listeria innocua LMG2785; assay: spot-on-lawn assay; assay type: cell-based; set-up: key to Activity, RPC fraction: +: zone of inhibition; (+): diffuse zone of inhibition; −: no zone of inhibition
Protocol: as §2

[7] = test system: Bacillus subtilis DSM 402; assay: spot-on-lawn assay; assay type: cell-based; set-up: key: +: zone of inhibition; (+): diffuse zone of inhibition; −: no zone of inhibition; details: ten-microliter RPC fraction
Protocol: as §2

[8] = test system: Corynebacterium ammoniagenes DSM 20306; assay: spot-on-lawn assay; assay type: cell-based; set-up: key: +: zone of inhibition; (+): diffuse zone of inhibition; −: no zone of inhibition; details: ten-microliter RPC fraction
Protocol: as §2

[9] = test system: Corynebacterium amycolatum DSM 6922; assay: spot-on-lawn assay; assay type: cell-based; set-up: key: +: zone of inhibition; (+): diffuse zone of inhibition; −: no zone of inhibition; details: ten-microliter RPC fraction
Protocol: as §2

[10] = test system: Corynebacterium casei DSM 44701; assay: spot-on-lawn assay; assay type: cell-based; set-up: key: +: zone of inhibition; (+): diffuse zone of inhibition; −: no zone of inhibition; details: ten-microliter RPC fraction
Protocol: as §2

[11] = test system: Corynebacterium efficiens DSM 44549; assay: spot-on-lawn assay; assay type: cell-based; set-up: key: +: zone of inhibition; (+): diffuse zone of inhibition; −: no zone of inhibition; details: ten-microliter RPC fraction
Protocol: as §2

[12] = test system: Corynebacterium lipophiloflavum DSM 44291; assay: spot-on-lawn assay; assay type: cell-based; set-up: key: +: zone of inhibition; (+): diffuse zone of inhibition; −: no zone of inhibition; details: ten-microliter RPC fraction
Protocol: as §2

[13] = test system: Corynebacterium striatum DSM 20668; assay: spot-on-lawn assay; assay type: cell-based; set-up: key: +: zone of inhibition; (+): diffuse zone of inhibition; −: no zone of inhibition; details: ten-microliter RPC fraction
Protocol: as §2

[14] = test system: Corynebacterium xerosis DSM 20743; assay: spot-on-lawn assay; assay type: cell-based; set-up: key: +: zone of inhibition; (+): diffuse zone of inhibition; −: no zone of inhibition; details: ten-microliter RPC fraction
Protocol: as §2

[15] = test system: Escherichia coli K-12 MG1655; assay: spot-on-lawn assay; assay type: cell-based; set-up: key: +: zone of inhibition; (+): diffuse zone of inhibition; −: no zone of inhibition; details: ten-microliter RPC fraction
Protocol: as §2

[16] = test system: Lactobacillus plantarum DSM 1055; assay: spot-on-lawn assay; assay type: cell-based; set-up: key: +: zone of inhibition; (+): diffuse zone of inhibition; −: no zone of inhibition; details: ten-microliter RPC fraction
Protocol: as §2

[17] = test system: Lactococcus lactis IL1403; assay: spot-on-lawn assay; assay type: cell-based; set-up: key: +: zone of inhibition; (+): diffuse zone of inhibition; −: no zone of inhibition; details: ten-microliter RPC fraction
Protocol: as §2

[18] = test system: Listeria monocytogenes EGD-e; assay: spot-on-lawn assay; assay type: cell-based; set-up: key: +: zone of inhibition; (+): diffuse zone of inhibition; −: no zone of inhibition; details: ten-microliter RPC fraction
Protocol: as §2

[19] = test system: Micrococcus luteus DSM 20030; assay: spot-on-lawn assay; assay type: cell-based; set-up: key: +: zone of inhibition; (+): diffuse zone of inhibition; −: no zone of inhibition; details: ten-microliter RPC fraction
Protocol: as §2

[20] = test system: Pediococcus acidilactici 347; assay: spot-on-lawn assay; assay type: cell-based; set-up: key: +: zone of inhibition; (+): diffuse zone of inhibition; −: no zone of inhibition; details: ten-microliter RPC fraction
Protocol: as §2

[21] = test system: Pseudomonas fluorescens DSM 50090; assay: spot-on-lawn assay; assay type: cell-based; set-up: key: +: zone of inhibition; (+): diffuse zone of inhibition; −: no zone of inhibition; details: ten-microliter RPC fraction
Protocol: as §2

[22] = test system: Staphylococcus aureus ATCC 29213; assay: spot-on-lawn assay; assay type: cell-based; set-up: key: +: zone of inhibition; (+): diffuse zone of inhibition; −: no zone of inhibition; details: ten-microliter RPC fraction
Protocol: as §2

[23] = test system: Staphylococcus epidermidis DSM 3269; assay: spot-on-lawn assay; assay type: cell-based; set-up: key: +: zone of inhibition; (+): diffuse zone of inhibition; −: no zone of inhibition; details: ten-microliter RPC fraction
Protocol: as §2

[24] = test system: C. glutamicum ATCC 13032; assay: fluorescence microscopy of propidium iodide-stained bacteria; assay type: cell-based, Corynebacterium glutamicum; details: 4,000-BU/mL RPC fraction, 10 to 30 min incubation
Protocol: A fresh culture of C. glutamicum ATCC 13032 was washed once in phosphate-buffered saline (PBS), and bacteria were resuspended in saline (0.9% [wt/vol] NaCl) at an OD600 of 1. An 87.5-μL concentration of the cell suspension was mixed with nisin, cetyltrimethylammonium bromide (CTAB), H2O, or the RPC fraction containing corynaridin to the indicated concentrations and incubated for 10 to 30 min in the dark. Then, the bacteria were stained using 12.5 μL propidium iodide (25 μg/mL) (Invitrogen, Darmstadt, Germany) and again incubated for 15 min in the dark. Samples were imaged using a Axio Observer Z1 (Zeiss, Oberkochen, Germany) in bright-field and fluorescence mode with a filter set for propidium iodide (excitation at 575 to 625 nm, emission at 660 to 710 nm). Images were acquired with a 63× lens objective and analyzed using the Zen software (version 2.3 SP1; Zeiss).

[25] = test system: trypsin; assay type: in vitro ADME
Protocol: (§3) To assess the physicochemical properties of the purified compound, it was tested for resistance to protease and heat treatment (Fig. 3c and d). While a reduction of activity of the RPC fraction to 8,000 BU/mL (i.e., about 4-fold) was observed after incubation with trypsin or proteinase K, heat treatment at 80°C and 100°C for 10 min had no effect.

[26] = molecular target: proteinase K (Parengyodontium album, UniProt P06873); assay: resistance to protease treatment; assay type: in vitro ADME
Protocol: as §3

[27] = resistance to heat treatment; assay type: physicochemical; details: read-out spot-on-lawn, 10-μL sample
Protocol: as §3

[28] = test system: Streptococcus pyogenes strain; details: cited from earlier work
Text: as §1

proteinase K, sequence (P06873 106-384): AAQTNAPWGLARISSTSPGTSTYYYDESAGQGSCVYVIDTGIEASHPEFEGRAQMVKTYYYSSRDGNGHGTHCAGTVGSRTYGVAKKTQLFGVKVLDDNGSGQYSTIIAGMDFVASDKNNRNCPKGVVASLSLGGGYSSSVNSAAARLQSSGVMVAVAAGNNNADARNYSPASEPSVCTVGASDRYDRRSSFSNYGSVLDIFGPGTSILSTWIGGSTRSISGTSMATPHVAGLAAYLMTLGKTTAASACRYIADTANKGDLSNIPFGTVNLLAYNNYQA

## cypemycin
[1]
  antimicrobial activity: limited to Micrococcus luteus

## O=C(N[C@H](CO)[C@H](O)c1ccc([N+](=O)[O-])cc1)C(Cl)Cl [chloramphenicol, reference compound]
[2]; 6.5 μg/mL, 2x TY, 30°C, 24 h
  CFU per milliliter throughout the experiment: stable levels of CFU per milliliter

## nisin [reference compound]
[2]; 1.25 μg/mL, 2x TY, 30°C, start ~10^7 CFU/mL
  reduced number of CFU/mL after 2 h: > 4 log
[3]; positive controls
  change of pHluorin2 fluorescence ratio (excitation 400/480 nm): reduced fluorescence ratios

## corynaridin
[4]; purified from CLI culture supernatant (ammonium sulfate, CIEX, RPC), resuspended in HPLC-grade H2O, BU/mL = last inhibiting dilution factor / volume spotted
  volumetric bacteriocin activity of RPC preparation: 32,000 BU/mL
[4]; purified from CLIV minimal medium supernatant (CIEX, RPC), corresponding to 0.5 μg/mL protein
  volumetric bacteriocin activity of RPC sample for LC-MS: 40,000 BU/mL
[4]; spot-on-lawn, ten-microliter RPC fraction
  Activity, RPC fraction: +
[5]; ten-microliter RPC fraction
  Activity, RPC fraction: (+)
[5]; total protein of RPC fraction
  concentration of RPC fraction at which low levels of inhibition were achieved: > 1,000 μg/mL
[6]; ten-microliter RPC fraction
  Activity, RPC fraction: (+)
[6]; total protein of RPC fraction
  concentration of RPC fraction at which low levels of inhibition were achieved: > 1,000 μg/mL
[7]
  Activity, RPC fraction: −
[8]
  Activity, RPC fraction: +
[9]
  Activity, RPC fraction: +
[10]
  Activity, RPC fraction: +
[11]
  Activity, RPC fraction: +
[12]
  Activity, RPC fraction: +
[13]
  Activity, RPC fraction: +
[14]
  Activity, RPC fraction: +
[15]
  Activity, RPC fraction: −
[16]
  Activity, RPC fraction: −
[17]
  Activity, RPC fraction: +
[18]
  Activity, RPC fraction: −
[19]
  Activity, RPC fraction: +
[20]
  Activity, RPC fraction: −
[21]
  Activity, RPC fraction: −
[22]
  Activity, RPC fraction: −
[23]
  Activity, RPC fraction: −
[2]; RPC fraction at 400 BU/mL (lower concentration)
  CFU/mL after 24 h: slightly increased CFU/mL after 24 h
[2]; RPC fraction at 400 BU/mL, 2x TY, 30°C, start ~10^7 CFU/mL
  decrease of CFU per milliliter after 2 h: 4 orders of magnitude
[2]; RPC fraction at 1,060 BU/mL (high concentration)
  CFU/mL after 24 h: remained at low levels of CFU/mL
[2]; RPC fraction at 1,060 BU/mL, 2x TY, 30°C, start ~10^7 CFU/mL
  decrease of CFU per milliliter after 2 h: 4 orders of magnitude
[3]; concentrations up to 10,000 BU/mL, at least three biological replicates
  change of pHluorin2 fluorescence ratio (excitation 400/480 nm): did not result in a change of fluorescence ratios
[24]
  membrane integrity by propidium iodide staining: no evidence for compromised integrity
[25]
  reduction of activity after incubation with trypsin: about 4 fold
[26]; 32,000 to 8,000 BU/mL
  reduction of activity after incubation with proteinase K: about 4 fold
[26]; starting activity 32,000 BU/mL, read-out spot-on-lawn, 10-μL sample, RPC fraction 606 μg/mL total protein
  activity of the RPC fraction after incubation with proteinase K: 8,000 BU/mL
[27]; 80°C for 10 min
  effect of heat treatment on activity: no effect
[27]; 100°C for 10 min
  effect of heat treatment on activity: no effect

## salinipeptins
[28]
  growth inhibition: inhibit growth

## CCCCCCCCCCCCCCCC[N+](C)(C)C [CTAB, cetyltrimethylammonium bromide]
[3]; positive controls
  change of pHluorin2 fluorescence ratio (excitation 400/480 nm): reduced fluorescence ratios
